Results published in US11147272B2, “Pyridone compounds and agricultural and horticultural fungicides comprising the same as active ingredients” (MITSUI CHEMICALS AGRO, INC., priority 2017, dated 2021).

What was measured:
Botrytis cinerea = assay: Test Example B: Gray mold on tomato; conditions: 250 ppm drug solution sprayed on test plant
[1] = test system: Blumeria graminis f. sp. hordei; assay: Test Example D: Powdery mildew on barley; conditions: 250 ppm drug solution sprayed on test plant
Alternaia brassicicola = assay: Test Example C: Alternaria sooty spot on cabbage; assay type: in vivo; conditions: 250 ppm drug solution sprayed on test plant
Description: Seeds of a test plant (cabbage variety: Shikidori) were planted and cultivated until the cotyledons extended.
<Control Value> Control value=100{1−(n/3)}

[2] = test system: Colletotrichum orbiculare; assay: Test Example H: Anthracnose on cucumber; conditions: 250 ppm drug solution sprayed (2.5 ml/pot), cucumber Sagami Hanjiro, 6 to 10 days after inoculation
Phytophthora infestans = assay: whole plant or invertebrate; assay type: in vivo; conditions: 250 ppm drug solution sprayed on test plant
Puccinia recondita = assay: Test Example E: Brown rust on wheat; assay type: in vivo; conditions: 250 ppm drug solution sprayed on test plant
Plasmopara viticola = assay: Test Example G: Downy mildew on vine; conditions: 250 ppm drug solution sprayed (2.5 ml/pot), grape Neomuscat, 7 to 10 days after inoculation
Magnaporthe grisea = assay: whole plant or invertebrate; assay type: in vivo; conditions: 250 ppm drug solution sprayed on test plant

SMILES | Test B control value (Botrytis cinerea) | Test D control value [1] | Test C control value (Alternaia brassicicola) | Test H control value [2] | Test F control value (Phytophthora infestans) | Test E control value (Puccinia recondita) | Test G control value (Plasmopara viticola) | Test A control value (Magnaporthe grisea)
CCCc1cc(Cl)c(=O)n(CC)c1-c1c(F)cc(OC)cc1F [compound 384] | H (more than 50% control value) | H (more than 50% control value) | H (more than 50% control value) | H (more than 50% control value) | L (50% or less control value) | H (more than 50% control value) | H (more than 50% control value) | H (more than 50% control value)
CCCc1cc(Br)c(=O)n(CC)c1-c1c(F)cc(OC)cc1F [compound 385] | H (more than 50% control value) | H (more than 50% control value) | H (more than 50% control value) | H (more than 50% control value) | L (50% or less control value) | H (more than 50% control value) | H (more than 50% control value) | H (more than 50% control value)
CCc1cc(Cl)c(=O)n(CC)c1-c1c(F)cc(F)cc1F [compound 386] | H (more than 50% control value) | H (more than 50% control value) | H (more than 50% control value) | H (more than 50% control value) | L (50% or less control value) | H (more than 50% control value) | H (more than 50% control value) | H (more than 50% control value)
CCc1cc(Br)c(=O)n(CC)c1-c1c(F)cc(F)cc1F [compound 387] | H (more than 50% control value) | H (more than 50% control value) | H (more than 50% control value) | H (more than 50% control value) | L (50% or less control value) | H (more than 50% control value) | H (more than 50% control value) | H (more than 50% control value)
CCc1ccc(=O)n(CC)c1-c1c(F)cc(OC)cc1F [compound 388] | H (more than 50% control value) | L (50% or less control value) | H (more than 50% control value) | H (more than 50% control value) | L (50% or less control value) | H (more than 50% control value) | L (50% or less control value) | H (more than 50% control value)
CCCc1cc(Br)c(=O)n(CC)c1-c1c(F)cc(F)cc1F [compound 389] | H (more than 50% control value) | H (more than 50% control value) | H (more than 50% control value) | H (more than 50% control value) | L (50% or less control value) | H (more than 50% control value) | L (50% or less control value) | H (more than 50% control value)
CCc1cc(Cl)c(=O)n(CC)c1-c1c(F)cc(OC)cc1F [compound 390] | H (more than 50% control value) | H (more than 50% control value) | H (more than 50% control value) | H (more than 50% control value) | L (50% or less control value) | H (more than 50% control value) | H (more than 50% control value) | H (more than 50% control value)
CCc1cc(Br)c(=O)n(CC)c1-c1c(F)cc(OC)cc1F [compound 391] | H (more than 50% control value) | L (50% or less control value) | H (more than 50% control value) | H (more than 50% control value) | L (50% or less control value) | H (more than 50% control value) | L (50% or less control value) | H (more than 50% control value)
CCCc1ccc(=O)n(C)c1-c1ccc(F)cc1Br [compound 410] | L (50% or less control value) | H (more than 50% control value) | L (50% or less control value) | L (50% or less control value) | L (50% or less control value) | H (more than 50% control value) | L (50% or less control value) | L (50% or less control value)
CCCc1ccc(=O)n(CC)c1-c1ccc(OC)cc1C [compound 411] | H (more than 50% control value) | H (more than 50% control value) | L (50% or less control value) | L (50% or less control value) | L (50% or less control value) | H (more than 50% control value) | L (50% or less control value) | L (50% or less control value)
CCCc1cc(Cl)c(=O)n(CC)c1-c1ccc(OC)cc1C [compound 412] | H (more than 50% control value) | H (more than 50% control value) | H (more than 50% control value) | H (more than 50% control value) | H (more than 50% control value) | H (more than 50% control value) | L (50% or less control value) | H (more than 50% control value)
CCCc1cc(Br)c(=O)n(CC)c1-c1ccc(OC)cc1C [compound 413] | H (more than 50% control value) | L (50% or less control value) | H (more than 50% control value) | H (more than 50% control value) | L (50% or less control value) | H (more than 50% control value) | L (50% or less control value) | H (more than 50% control value)
CCCc1cc(Cl)c(=O)n(C)c1-c1ccc(F)cc1Br [compound 414] | H (more than 50% control value) | H (more than 50% control value) | H (more than 50% control value) | H (more than 50% control value) | L (50% or less control value) | H (more than 50% control value) | L (50% or less control value) | H (more than 50% control value)
CCCc1cc(Br)c(=O)n(C)c1-c1ccc(F)cc1Br [compound 415] | H (more than 50% control value) | L (50% or less control value) | H (more than 50% control value) | L (50% or less control value) | L (50% or less control value) | H (more than 50% control value) | L (50% or less control value) | H (more than 50% control value)
CCCc1ccc(=O)n(C)c1-c1ccc(OC)cc1Br [compound 416] | L (50% or less control value) | L (50% or less control value) | L (50% or less control value) | L (50% or less control value) | L (50% or less control value) | H (more than 50% control value) | L (50% or less control value) | L (50% or less control value)
